From the NIST ThermoML archive (doi:10.1021/je800357c)
Numbers after ± are expanded uncertainties.

Assay: mn = molality of the nth substance listed, in mol/kg
Conditions: 101 kPa, Liquid

O=C(O)/C=C\C(=O)O [cis-1,4-butenedioic acid] + O
mass density (288.15 K, m1 = 0.09831): 1003.24 ± 0.43 kg/m3 | mass density (288.15 K, m1 = 0.4902): 1018.5 ± 0.44 kg/m3 | mass density (288.15 K, m1 = 0.979): 1035.99 ± 0.45 kg/m3 | mass density (293.15 K, m1 = 0.09831): 1002.29 ± 0.43 kg/m3 | mass density (293.15 K, m1 = 0.4902): 1017.26 ± 0.44 kg/m3 | mass density (293.15 K, m1 = 0.979): 1034.47 ± 0.45 kg/m3 | mass density (298.15 K, m1 = 0.09831): 1001.04 ± 0.43 kg/m3 | mass density (298.15 K, m1 = 0.4902): 1015.79 ± 0.44 kg/m3 | mass density (298.15 K, m1 = 0.979): 1032.74 ± 0.45 kg/m3 | mass density (303.15 K, m1 = 0.09831): 999.59 ± 0.43 kg/m3 | mass density (303.15 K, m1 = 0.4902): 1014.1 ± 0.44 kg/m3 | mass density (303.15 K, m1 = 0.979): 1030.81 ± 0.45 kg/m3 | mass density (308.15 K, m1 = 0.09831): 997.91 ± 0.43 kg/m3 | mass density (308.15 K, m1 = 0.4902): 1012.25 ± 0.44 kg/m3 | mass density (308.15 K, m1 = 0.979): 1028.74 ± 0.45 kg/m3 | mass density (313.15 K, m1 = 0.09831): 996.07 ± 0.43 kg/m3 | mass density (313.15 K, m1 = 0.4902): 1010.18 ± 0.44 kg/m3 | mass density (313.15 K, m1 = 0.979): 1026.46 ± 0.45 kg/m3 | mass density (318.15 K, m1 = 0.09831): 994.03 ± 0.43 kg/m3 | mass density (318.15 K, m1 = 0.4902): 1007.98 ± 0.44 kg/m3 | mass density (318.15 K, m1 = 0.979): 1024.06 ± 0.44 kg/m3 | mass density (323.15 K, m1 = 0.09831): 991.81 ± 0.44 kg/m3 | mass density (323.15 K, m1 = 0.4902): 1005.58 ± 0.43 kg/m3 | mass density (323.15 K, m1 = 0.979): 1021.47 ± 0.44 kg/m3 | mass density (328.15 K, m1 = 0.09831): 989.41 ± 0.44 kg/m3 | mass density (328.15 K, m1 = 0.4902): 1003.01 ± 0.43 kg/m3 | mass density (328.15 K, m1 = 0.979): 1018.75 ± 0.44 kg/m3 | mass density (333.15 K, m1 = 0.09831): 986.88 ± 0.44 kg/m3 | mass density (333.15 K, m1 = 0.4902): 1000.36 ± 0.43 kg/m3 | mass density (333.15 K, m1 = 0.979): 1015.92 ± 0.44 kg/m3
